Here are results for five compounds from patent US12188095B2, “Methods and compositions for identifying and treating patients with small cell lung cancer” (UNIVERSITY OF UTAH RESEARCH FOUNDATION, priority 2016, dated 2025).

Structures are written as SMILES.

One test concerns human cell lines. The test is described as follows: Human cell line viability with BCL2 inhibitors (CellTiter-Glo, GI50). The note with it: 96 h. Type of test: cell-based. As to the method: Human cell lines were seeded in triplicate in white, flat-bottomed 96-well plates at 2000 cells/well. […] Drug was added again at 48 h to maintain the desired final concentration. After 96 h of treatment, cell viability was measured using Cell Titer Glo (CTG) assay (Promega, Madison, Wis., USA) and plates were read on a luminometer. Normalized, transformed dose response curves were generated and analyzed using GraphPad Prism (GraphPad, La Jolla, Calif., USA) to determine GI50 for each compound (see, FIG. 13). Error bars represent mean+/−SEM.
In general terms: ATP-based viability assays read luminescence as a measure of living cells.

The test system of the next test is relapsed SCLC. The settings on record: monotherapy, relapsed SCLC (Melichar et al., 2015); cited from earlier work.
Test [1] has as its system human SCLC cell lines infected with Bcl-2 vector. As to the kind of experiment: Viability of human SCLC cell lines overexpressing BCL2. Type of test: cell-based. The settings on record: human SCLC cell lines with pMSCV PIG Bcl-2 vs empty vector.
Experimental: HEK293T cells were transfected with pMSCV PIG (Addgene Plasmid #21654) empty vector, or pMSCV PIG with an insert that encodes the human Bcl-2 gene in addition to pCMV-VSVG and pCMV delta R8.2 plasmids using TransIT-LT1 (Minis). Virus was collected at 48 and 72 hr post-transfection. Human SCLC cell lines were infected with viral supernatant. Infected cells were selected with puromycin for several days until all uninfected cells were killed by puromycin. […] Cell viability assays were carried out as previously described, with the addition of Alisertib+/−0.5 uM ABT-199 (ApexBio) using the infected human cell lines described above. Cell viability assays were carried out as previously described, with the addition of Alisertib+/−0.5 uM ABT-199 (ApexBio) using the infected human cell lines described above.
Test [2] has as its system MYC-high vs. MYC-low human SCLC cell lines. The note with it: 68 human SCLC cell lines binned by MYC expression, data of Polley et al., 2016; cited from earlier work.
The next test relates to MYC. The test is described as follows: MYC protein level and stability (immunoblot, cycloheximide). The settings on record: mouse or human cells, also after cycloheximide block of protein synthesis. Type of test: cell-based. The method, then:
Alternatively, cell lysates were prepared using RIPA buffer supplemented with protease inhibitors (Roche complete mini) and benzonase (Millipore)), separated on 4-20% Tris-glycine SDS-PAGE gels (Invitrogen), and transferred to PVDF-FL membrane (Millipore). Membranes were blocked using Li-Cor blocking buffer (1:10 in TBS) and incubated with primary antibodies in blocking solution with 0.2% Tween 20 overnight at 4° C. Prior to detection with a near-IR imaging system (Li-Cor Odyssey), membranes were washed in TBS-T, incubated with secondary antibodies and washed in TBS-T. For total Aurora A in FIG. 6H, the chemiluminescent signal (ECL, GE Healthcare) was captured with a CCD-camera (BioRad Geldoc XR+). […]
Protein stability cycloheximide (CHX) experiments. […] Protein lysates were prepared using RIPA buffer as described above, separated on 4-20% Tris-glycine gels (Invitrogen), and analyzed by immunoblot against Myc and Hsp90. Signals were quantified using Li-Cor Image Studio (Li-Cor Biosciences) and ratios of Myc/Hsp90 normalized to the 0 min time point. […]
For orientation: A western blot detects proteins with antibodies after separation by electrophoresis.

Another test concerns human SCLC cell lines. The test is described as follows: Drug screening of human SCLC cell lines (CellTiter-Glo viability, GI50). Type of test: cell-based. The note with it: 17 human SCLC cell lines, 72-96 hr; adjusted p: etoposide 0.038, alisertib 0.001, barasertib 0.022.
The next test deals with AURKA. The test is described as follows: Immunoblot of Aurora kinase inhibition in treated cells. Type of test: cell-based. The settings on record: concentrations in the range of the GI50-value, mouse and human cells.
In test [3] the test system is RPM mice with Myc-driven SCLC. The test is described as follows: In vivo drug study in RPM mice (microCT tumor volume, survival). On the set-up: species or system mouse.
Experimental: Alisertib (MLN8237, ApexBio, dissolved in 10% 2-hydroxy-beta-cyclo-dextrin and 1% sodium bicarbonate) was given 20 mg/kg twice daily by oral gavage on a schedule of 5 days on, 2 days off. […] For survival studies, endpoints include but are not limited to: difficulty breathing, eating or moving, obvious signs of pain or weight loss greater than 20% of initial body weight.
Mice were scanned for 34 sec under isoflurane anesthesia using a small animal Quantum FX microCT (PerkinElmer) at 45 μm resolution, 90 kV with 160 μA current. Images were acquired using PerkinElmer Quantum FX software and processed with Analyze 11.0 (AnalyzeDirect).
Scans were calibrated for Hounsfield Units (HU) by determining the mean value of “Bed” and “Air” for representative scans through the region of interest (ROI) tool and matching those values to their known HU (40 HU and −1000 HU, respectively) using the “Image Algebra” tool. Every image was then applied a 3×3×3 Median Filter from the “Spatial Filters” window. Thresholds of “Air” vs. “Dense Tissue” were established using the ROI and histogram tools. Every image was processed and normalized using the “Image Algebra” tool, followed by a 3×3×3 Median Filter from the “Spatial Filters” window. For Total Tumor Burden Analyses, the object map was created using the previously established thresholds; adjustments were made manually using “Spline Edit”, “Draw” and “Nudge Edit” tools. The object map was then morphed using the “Morphology” tool. The object map was made binary by using the threshold morphing tool. Then, the map was dilated 3 times using 5×5×5 Jack-shaped structuring elements. The holes were then filled on every 2D-orientation. The map was finally brought back to its original size using the “Erode” tool 3 times using 5×5×5 Jack-shaped structuring elements. The volumetric analyses were then performed in the ROI window using the pre-established thresholds and non-airspace was calculated using the formula: Non-airspace=1−(VolAir/ROIVol). For individual tumors, the 3D segmentation was performed semiautomatically using Analyze 11.0 “object extract tool”. Adjustments were made manually using the “Spline Edit”, “Draw” and “Nudge Edit” tools. The tumor segmentation was then processed using the semi-automatic tools “fill holes” and the object was propagated and smoothed in the axial, transverse and coronal planes. Volume quantification was obtained using the ROI tool as for total tumor burden analyses.
Total tumor volume was quantified relative to total air volume as a comprehensive measurement of treatment impact. […] The percent change in total tumor volume was analyzed at Day 19 (or at the time of death, if sooner) compared to Day 0 in each treatment group by waterfall plot.
A further test concerns the target T1, AURKB (Homo sapiens, UniProt Q96GD4).
T1 construct: Whole cell lysates analyzed by immunoblot for indicated antibodies; endogenous in cells; host or cells: GLC2 (human SCLC)
As to the kind of experiment: Immunoblot of Aurora kinase inhibition in treated cells. Type of test: cell-based. The note with it: concentrations in the range of the GI50-value, mouse and human cells. The method, then: Immunoblot. For primary lung tumor lysates, mouse lung tumors were micro-dissected under sterile conditions, flash frozen and stored at −80° C. until use. Approximately 20-40 mg tumor pieces were disrupted and lysed to homogeneity with disposable pestles and cordless motor (VWR) in 200 μl RIPA buffer supplemented with protease inhibitors (Roche complete mini) and sodium orthovanadate (Sigma). Lysates are centrifuged at 13000 rpm for 15 minutes and supernatants are transferred to new tubes. For cell line lysates, total protein lysates are prepared as previously described, separated via SDS-PAGE and transferred to a PVDF membrane (Oliver et al., 2011). Membranes were blocked for 1 hr in 5% milk or 5% BSA, followed by overnight incubation with primary antibodies at 4° C. Membranes were washed for 6×5 min at room temperature in TBS-T. Mouse and rabbit HRP-conjugated secondary antibodies (Jackson ImmunoResearch, 1:10,000) were incubated for 1 hr at room temperature followed by washing 6×5 min at room temperature in TBS-T. For detection, membranes were exposed to WesternBright HRP Quantum substrate (Advansta) and detected on Hyblot CL film (Denville Scientific Inc). […]

The test system of another test is RPM tumors. The test is described as follows: IHC and histology of tumors of treated RPM mice. The class given is in vivo, mouse.
Another test has as its system RPM cells. The test is described as follows: Cell cycle analysis (PI staining, flow cytometry). Type of test: cell-based, mouse. The note with it: 48 hr. The method, then: Cell cycle analysis. Cells were treated with indicated concentrations of alisertib (MLN8237, Selleckchem, Houston, Tex.) in 6-well plates and harvested with trypsin, washed twice in PBS, and 1×10^6 cells were fixed in ice-cold 70% ethanol overnight. Cells were washed 2× in PBS/1% BSA, treated with 100 μg/mL RNase for 10 min at 37° C., then stained with 25 μg/mL propidium iodide (PI) overnight at 4 C. Cells were analyzed on a BD FACScan flow cytometer and cell cycle analysis excluding cell doublets was performed using FlowJo software.

Test [4] has as its system RPM mouse SCLC cell lines. As to the kind of experiment: Mouse cell viability and proliferation assays (CellTiter-Glo, GI50). The note with it: 96 hrs; for GI50: RPM cell lines (n=7). The class given is cell-based. The method, then: Mouse cell viability and proliferation assays. Cells were seeded in triplicate (1500/well) in white, flat-bottom 96-well plates. […] After 96 hrs of treatment, cell viability was measured using Cell Titer Glo (CTG, Promega, Madison, Wis., USA) on a luminometer. Normalized, transformed dose response curves were generated and analyzed using GraphPad Prism (GraphPad, La Jolla, Calif., USA) to determine GI50 for each compound. […] Confluence percentage at each time point was calculated by the Essen IncuCyte software.

T1 sequence (Q96GD4 whole entry): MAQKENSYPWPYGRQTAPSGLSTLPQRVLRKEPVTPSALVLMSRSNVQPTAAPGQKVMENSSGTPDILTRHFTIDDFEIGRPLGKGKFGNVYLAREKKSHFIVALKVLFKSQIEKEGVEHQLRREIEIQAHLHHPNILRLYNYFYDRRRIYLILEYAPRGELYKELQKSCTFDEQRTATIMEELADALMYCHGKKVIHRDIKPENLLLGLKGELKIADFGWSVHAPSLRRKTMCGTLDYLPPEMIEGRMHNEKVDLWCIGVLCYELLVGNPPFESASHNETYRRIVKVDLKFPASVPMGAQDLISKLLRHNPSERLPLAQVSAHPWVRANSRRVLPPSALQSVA
Experimental for RPM tumors: Sections were dewaxed, rehydrated and subjected to high temperature antigen retrieval, 20 min boiling in a pressure cooker in 0.01 M citrate buffer, pH 6.0. Slides were blocked in 3% H202 for 15 min, blocked in 5% goat serum in PBS/0.1% Tween-20 (PBS-T) for 1 hr, and stained overnight in blocking buffer with primary antibodies. A HRP conjugated secondary antibody (Vector Laboratories) was used at 1:200 dilution in PBS-T, incubated for 45 min at room temperature, followed by DAB staining (Vector Laboratories). All staining was performed with Sequenza coverplate technology. Mouse on Mouse (M.O.M.) Basic Kit (Vector Laboratories) was used for staining with BrdU and Ki67 mouse primary antibodies. Tris buffered saline with Tween-20 (TBS-T) was used instead of PBS-T for phospho-protein antibodies. […]
For automated image analysis, IHC-stained slides were digitally scanned with the Aperio AT2 Scanscope and whole slides images were quantitatively analyzed with image analysis nuclear algorithm using Halo digital imaging analysis software (Indica Labs, NM, USA). […] Results are expressed as percent positive cells per tumor area.

In the case of `CC1(C)CCC(CN2CCN(c3ccc(C(=O)NS(=O)(=O)c4ccc(NCC5CCOCC5)c([N+](=O)[O-])c4)c(Oc4cnc5[nH]ccc5c4)c3)CC2)=C(c2ccc(Cl)cc2)C1` [ABT-199], the “sensitivity (GI50) to BCL2 inhibition relative to MYC expression” value in the test on human cell lines is “MYC expression anti-correlates with BCL2 expression and sensitivity to BCL2 inhibition”.

As for `CN(C)CC[C@H](CSc1ccccc1)Nc1ccc(S(=O)(=O)NC(=O)c2ccc(N3CCN(Cc4ccccc4-c4ccc(Cl)cc4)CC3)cc2)cc1[N+](=O)[O-]` [ABT-737], in the test on human cell lines, the “sensitivity (GI50) to BCL2 inhibition relative to MYC expression” value is “MYC expression anti-correlates with BCL2 expression and sensitivity to BCL2 inhibition”.

`COc1cc(Nc2ncc3c(n2)-c2ccc(Cl)cc2C(c2c(F)cccc2OC)=NC3)ccc1C(=O)O` [alisertib]: in the test with relapsed SCLC, the “patients exhibiting partial responses” value is given as roughly 20%. In addition, the “Alisertib sensitivity on BCL2 overexpression” value in test [1] is on record as “BCL2 overexpression promotes Alisertib resistance”. Besides, the “efficacy (IC50) in MYC-high versus MYC-low cell lines” value in test [2] was “increased efficacy in MYC-high cell lines”. Besides, the MYC protein level entry in the test with MYC is listed as “did not primarily lead to reduced MYC protein”. For the same compound, the “drug response (GI50) of MYC-driven SCLCs versus those driven by MYCL or MYCN” value in the test with human SCLC cell lines is “significantly more responsive”. In addition, the “inhibition of AURKA” value with AURKA is given as “dose-dependent inhibition”. For the same compound, in [3] (Day 0 = start of treatment), the “increase of median survival compared to untreated animals” value was determined as 10 days. Besides, the “mice that survived 30 days” value in test [3] (PBS 0%) was determined as 8%. Moreover, the “tumor growth (total tumor volume by microCT)” value in test [3] (three cycles, alisertib 20 mg/kg twice daily 5 days on 2 off, cisplatin 5 mg/kg + etoposide 10 mg/kg once weekly) is “modest delay in tumor growth”. Further, in test [3] (waterfall plot), the “overall response (percent change in total tumor volume Day 0-19) compared to untreated animals” value is “did not impact overall response”. Moreover, on AURKB, the “inhibition of AURKB” value is recorded as “dose-dependent inhibition”. Besides, the “cells with polyploidy and aberrant mitoses” value with RPM tumors (alisertib 20 mg/kg twice daily) is reported as “dramatic enrichment”. For the same compound, in the test with RPM tumors (compared to other treatment groups), the “NEUROD1+ cells by IHC” value was “significantly enriched”. Besides, in the test with RPM cells (RPM cells compared to KP, RPP and RP cells), the subG1 cells entry was “greater increase in subG1 cells”. Also, the G2/M phase cells entry in the test on RPM cells (RPM cells) is on record as “dose-dependent increase in G2/M phase cells”. In addition, in test [4] (RPM vs RPP, RP, KP cell lines), the “sensitivity of RPM cells compared to adenocarcinoma cell lines and non-MYC-driven cells (GI50)” value is “particularly sensitive”.

Take `N.N.[Cl][Pt][Cl]` [cisplatin]: the GI50 entry in test [4] is “high micromolar”.

With `COc1cc([C@@H]2c3cc4c(cc3[C@@H](O[C@@H]3O[C@@H]5CO[C@@H](C)O[C@H]5[C@H](O)[C@H]3O)[C@H]3COC(=O)[C@H]23)OCO4)cc(OC)c1O` [etoposide], the GI50 result in [4] is given as “nanomolar”.
